According to patent US9289496B2, “Lipid dipeptide and gel” (Nissan Chemical Industries, Ltd., priority 2008, dated 2016):
Residues, ends and D or L forms follow the SMILES beside them.

Tests used:
Format in all cases: physicochemical
[1] = Preparation of film from sheet-shaped gel; details: 0.5% (w/v); 30%, 20% and 10% glycerin aqueous solutions; dissolved at 80° C.
Procedure: Into a screw tube (Maruemu No. 3, manufactured by Maruemu Corp.), 3 mg of N-palmitoyl-Gly-His.TFA salt prepared in Example 1 was placed. Into the screw tube, 0.6 ml of Japanese Pharmacopoeia purified water (Kyoei Pharmaceutical Industries, Ltd.) was added so as to have a concentration of 0.5% (w/v). The whole was heated at 105° C. for 5 minutes, and then allowed to stand at room temperature to prepare a gel of 0.5% N-palmitoyl-Gly-His.TFA salt.
Into the gel, 2 ml of Japanese Pharmacopoeia purified water (Kyoei Pharmaceutical Industries, Ltd.) was further added and sheet formation was observed from a wide view for 72 hours.
Using 10 mg of free N-palmitoyl-Gly-His, each 2.0 mL of 30%, 20%, and 10% glycerin aqueous solutions was added so as to become a 0.5% (w/v) solution, and the mixture solution was heated and dissolved at 80° C. The solution was placed in a glass petri dish having an inner diameter of 2.2 cm and allowed to cool at room temperature. […] Then, the obtained gel was transferred onto a glass substrate.

[2] = Usable mediums: solubility and gel formation, conventional art vs palmitoyl-Gly-His; details: wide variety of mediums including 50 mM citrate buffer pH 5, 50 mM acetate buffer pH 5, ethanol/water with 80% or more ethanol
[3] = Gelation test when adding methylparaben; details: aqueous solution of 0.2 wt % methylparaben; 0.25, 0.5 or 1.0 wt % tested
Procedure: An aqueous solution of 0.2 wt % methylparaben was prepared, and into the solution, free N-palmitoyl-Gly-His prepared in Example 4 was added so as to have a concentration of 0.25, 0.5, or 1.0 wt % to prepare a suspended mixture solution. Each mixture solution was heated at 95 to 99° C. until dissolved (for 6 to 25 minutes), and then allowed to cool to room temperature.

[4] = Evaluation of gelation of free N-palmitoyl-Gly-His in water and at various pHs; design: key: a sample that formed a gel is shown as “O”; a sample that formed a sol is shown as “X”; a sample without evaluation is shown as “-”
Procedure: Free N-palmitoyl-Gly-His prepared in Example 4 was placed into a screw tube (Maruemu No. 1, manufactured by Maruemu Corp.). Each of the various solutions shown in Table 4 was added into the screw tube so as to have a free N-palmitoyl-Gly-His (also called Pal-GH (free)) concentration of 0.1%, 0.2%, 0.5%, 1%, or 2% (w/v). The mixture was heated at 100° C. with a constant temperature heat block (manufactured by Nippon Genetics Co., Ltd.), and then allowed to stand at room temperature.
In Table, a sample that formed a gel is shown as “O”, a sample that formed a sol is shown as “X”, and a sample without evaluation is shown as “-”.

## CCCCCCCCCCCCCCCC(=O)NCC(=O)N[C@@H](Cc1c[nH]cn1)C(=O)O [Example 4, N-Palmitoyl-Gly-His] (HELM PEPTIDE1{[CCCCCCCCCCCCCCCC(=O)[*:2]].G.H}$$$$V2.0)
[1]
  Gelation: gelation was observed in each case
[2]
  Gel formation: can form a gel
[3]
  Concentration at which a transparent gel was obtained: ≥ 0.5 wt %
[4]; 0.1% (w/v), phosphate buffer solution pH 3
  Gelation: ◯
[4]; 0.1% (w/v), phosphoric acid aqueous solution pH 2
  Gelation: ◯
[4]; 0.1% (w/v), water
  Gelation: X
[4]; 0.2% (w/v), phosphate buffer solution pH 3
  Gelation: ◯
[4]; 0.2% (w/v), phosphate buffer solution pH 5
  Gelation: ◯
[4]; 0.2% (w/v), phosphate buffer solution pH 6
  Gelation: ◯
[4]; 0.2% (w/v), phosphoric acid aqueous solution pH 2
  Gelation: ◯
[4]; 0.2% (w/v), water
  Gelation: X
[4]; 0.5% (w/v), phosphate buffer solution pH 3
  Gelation: ◯
[4]; 0.5% (w/v), phosphate buffer solution pH 5
  Gelation: ◯
[4]; 0.5% (w/v), phosphate buffer solution pH 6
  Gelation: ◯
[4]; 0.5% (w/v), phosphate buffer solution pH 7.5
  Gelation: ◯
[4]; 0.5% (w/v), phosphate buffer solution pH 9
  Gelation: X
[4]; 0.5% (w/v), phosphate buffer solution pH 10
  Gelation: X
[4]; 0.5% (w/v), phosphoric acid aqueous solution pH 2
  Gelation: ◯
[4]; 0.5% (w/v), water
  Gelation: X
[4]; 1.0% (w/v), phosphate buffer solution pH 5
  Gelation: ◯
[4]; 1.0% (w/v), phosphate buffer solution pH 6
  Gelation: ◯
[4]; 1.0% (w/v), phosphate buffer solution pH 7.5
  Gelation: ◯
[4]; 1.0% (w/v), phosphate buffer solution pH 9
  Gelation: ◯
[4]; 1.0% (w/v), phosphate buffer solution pH 10
  Gelation: ◯
[4]; 1.0% (w/v), water
  Gelation: ◯
[4]; 2.0% (w/v), phosphate buffer solution pH 9
  Gelation: ◯
[4]; 2.0% (w/v), phosphate buffer solution pH 10
  Gelation: ◯
[4]; 2.0% (w/v), water
  Gelation: ◯
